Laboratory results published in BindingDB's records for doi:10.1021/jm00099a027 (Smithkline Beecham Pharmaceuticals, 1992).
Bridge positions count the residues as written; N and C are the ends. Square brackets hold non-standard residues; d marks the D form. Peptide text beside a SMILES is read from it. NMeR = CN[C@@H](CCCNC(=N)N)C(=O)O

Assay: Inhibition of ADP-induced platelet aggregation in canine platelet-rich plasma

IC50 [nM]	Compound
720	CC(=O)N(C)C(CCCNC(=N)N)C(=O)NCC1=CC(CC(=O)O)C(=O)N(c2ccccc2)CC1 (configuration not stated)
360	CC(=O)N[C@H]1CSSC[C@@H](C(N)=O)NC(=O)[C@H](CC(=O)O)NC(=O)CNC(=O)[C@H](CCCN=C(N)N)N(C)C1=O [SKF-106760] (Ac-C[NMeR]GDC-NH2; disulfide 1-5)
